# Experimental data from patent publication US9040707B2, “Bicyclic thiazoles as allosteric modulators of mGluR5 receptors” (Janssen Pharmaceutica NV, priority 2009, dated 2015).
# Structures can show the parent of a compound that is named as a salt.
# How the values were obtained:
# human mGluR5 receptor = biological target: T1, human mGluR5 receptor (Homo sapiens, UniProt P41594); test: Functional Assay 1: intracellular Ca2+ mobilization, positive allosteric modulation of glutamate EC20 response; format: cell-based; conditions: for Emax: maximum % effect relative to glutamate ECMax
# T1 construct: expressed in transfected cells; host or cells: HEK-293
# T1 sequence (P41594 21-1180 isoform P41594-2 limits assumed): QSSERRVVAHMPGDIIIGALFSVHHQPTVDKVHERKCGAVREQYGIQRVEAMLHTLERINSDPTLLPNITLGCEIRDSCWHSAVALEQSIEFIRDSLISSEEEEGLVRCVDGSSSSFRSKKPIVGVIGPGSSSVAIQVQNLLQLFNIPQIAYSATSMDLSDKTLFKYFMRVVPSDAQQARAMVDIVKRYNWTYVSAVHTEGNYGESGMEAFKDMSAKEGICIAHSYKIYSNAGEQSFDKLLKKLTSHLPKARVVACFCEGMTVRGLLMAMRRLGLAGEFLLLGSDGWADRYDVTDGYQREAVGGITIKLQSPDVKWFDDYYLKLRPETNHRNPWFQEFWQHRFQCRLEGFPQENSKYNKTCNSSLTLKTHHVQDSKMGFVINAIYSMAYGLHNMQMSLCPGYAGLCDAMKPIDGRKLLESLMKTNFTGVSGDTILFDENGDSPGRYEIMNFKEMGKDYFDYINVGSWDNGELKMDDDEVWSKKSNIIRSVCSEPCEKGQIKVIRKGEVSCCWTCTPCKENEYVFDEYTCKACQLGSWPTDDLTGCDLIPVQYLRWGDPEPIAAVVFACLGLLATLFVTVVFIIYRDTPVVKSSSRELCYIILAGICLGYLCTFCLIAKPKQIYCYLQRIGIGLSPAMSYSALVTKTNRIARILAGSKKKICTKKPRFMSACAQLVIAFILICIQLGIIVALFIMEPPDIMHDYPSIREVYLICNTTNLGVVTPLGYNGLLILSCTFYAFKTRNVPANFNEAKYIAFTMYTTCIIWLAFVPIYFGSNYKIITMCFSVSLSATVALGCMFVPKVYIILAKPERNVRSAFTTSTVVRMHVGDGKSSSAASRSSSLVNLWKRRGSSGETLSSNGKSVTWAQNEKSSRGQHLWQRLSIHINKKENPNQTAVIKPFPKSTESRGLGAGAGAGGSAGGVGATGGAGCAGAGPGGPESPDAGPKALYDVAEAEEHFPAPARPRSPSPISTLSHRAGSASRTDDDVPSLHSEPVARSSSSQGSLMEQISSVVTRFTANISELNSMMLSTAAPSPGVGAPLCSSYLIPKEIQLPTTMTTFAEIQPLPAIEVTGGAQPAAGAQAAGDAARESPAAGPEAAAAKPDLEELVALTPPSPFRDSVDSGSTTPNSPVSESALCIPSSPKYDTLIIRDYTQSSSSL
# human mGluR5a receptor = biological target: T2, human mGluR5a receptor (Homo sapiens, UniProt P41594); test: Functional Assay 2: Ca2+ mobilization, HEK cells with human mGluR5a receptor (H10H cell line); format: cell-based; conditions: for EC50 / Emax: H10H cell line; for EC50: glutamate EC20; for Emax: HEK293, maximum average response at a single concentration, relative to glutamate ECMax
# T2 construct: host or cells: HEK293A (monoclones H10H and H12H)
# T2 sequence (P41594 21-1180 isoform P41594-2 limits assumed): as above
# Experimental: Human mGluR5a cDNA in pCMV6-XL6 mammalian expression plasmid was purchased from OriGene Technologies, Inc. (catalogue number SC326357) and subcloned into pcDNA3.1(−). […] Monoclones were named for the species (“H” for human) plus the location on the plate (e.g. “10H”).
# The following day, the growth medium was removed and the cells were washed with assay buffer containing 1× Hank's balanced salt solution (Invitrogen, Carlsbad, Calif.), 20 mM HEPES, 2.5 mM probenecid, pH 7.4 and left with 20 μL of this reagent. Following this step, the cells were loaded with calcium indicator dye, fluo-4 AM, to a final concentration of 2 μM and incubated for 40-45 min at 37° C. The dye solution was removed and replaced with assay buffer. Cell plates were held for 10-15 min at room temperature and were then loaded into the Functional Drug Screening System 6000 (FDSS 6000, Hamamatsu, Japan).
# After establishment of a fluorescence baseline for about 3 seconds, the compounds of the present invention were added to the cells, and the response in cells was measured. 2.3 minutes later an EC20 concentration of the mGluR5 receptor agonist glutamate was added to the cells, and the response of the cells was measured for about 1.7 minutes. All test compounds were dissolved and diluted to a concentration of 10 mM in 100% DMSO and then serially diluted into assay buffer for a 2× stock solution in 0.6% DMSO; stock compounds were then added to the assay for a final DMSO concentration of 0.3% after the first addition to the assay well. Calcium fluorescence measures were recorded as fold over basal fluorescence; raw data was then normalized to the maximal response to glutamate.
# The concentration-response curves of compounds of the present invention, obtained in the presence of EC20 of mGluR5 receptor agonist glutamate to determine positive allosteric modulation, were generated using Microsoft Excel with IDBS XLfit add-ins. The raw data file containing all time points was used as the data source in the analysis template. This was saved by the FDSS as a tab-delimitted text file. Data were normalized using a static ratio function (F/F0) for each measurement of the total 350 values per well divided by each well's initial value. […] This is sufficient time to capture the peak amplitude of the cellular calcium response. […] Each of the three values collected at each concentration of test compound were weighted evenly. […] These two methods are in good agreement for curves with a clear plateau at the high concentration range.
# [1] = human mGluR5 over-expressing HEK-293 cells, glutamate EC20 (~0.2 μM), updated value
EC50 (human mGluR5a receptor) [nM],Emax (human mGluR5a receptor) [%],SMILES,other results
562,71,"O=C1c2sc(COc3ccccc3)nc2CCN1c1ccncc1F [Compound 58, 5-(3-fluoro-4-pyridinyl)-6,7-dihydro-2-(phenoxymethyl)-thiazolo[5,4-c]pyridin-4(5H)-one]",
2630,37.5,"CC(C)N1CCc2nc(COc3ccccc3)sc2C1=O [Compound 63, 6,7-dihydro-5-(1-methylethyl)-2-(phenoxymethyl)-thiazolo[5,4-c]pyridin-4(5H)-one]",
> 30200,18,"CC(C)N1CCc2nc(COc3cccc(F)c3)sc2C1=O [Compound 64, 2-[(3-fluorophenoxy)methyl]-6,7-dihydro-5-(1-methylethyl)-thiazolo[5,4-c]pyridin-4(5H)-one]",
> 30200,18,"Cc1ccccc1COc1nc2c(s1)C(=O)NCC2 [Compound 67, 6,7-dihydro-2-[(2-methylphenyl)methoxy]-thiazolo[5,4-c]pyridin-4(5H)-one]",
> 30200,20,"Cc1cccc(COc2nc3c(s2)C(=O)NCC3)c1 [Compound 68, 6,7-dihydro-2-[(3-methylphenyl)methoxy]-thiazolo[5,4-c]pyridin-4(5H)-one]",

# Further lines, the molecule ahead of its results:
SMILES,EC50 (human mGluR5a receptor) [nM],Emax (human mGluR5a receptor) [%],other results
"O=C1c2sc(OCc3ccccc3)nc2CCN1c1ccc(F)cc1 [Compound 1, 5-(4-fluorophenyl)-6,7-dihydro-2-(phenylmethoxy)-thiazolo[5,4-c]pyridin-4(5H)-one]",309,57,"EC50 (human mGluR5 receptor; [1]): 1290 nM; Emax (human mGluR5 receptor): 64%; EC50 (human mGluR5 receptor; original value, which was updated as compound was further tested): 851 nM"
"O=C1NCCc2nc(COc3ccccc3)sc21 [Compound 2, 6,7-dihydro-2-(phenoxymethyl)-thiazolo[5,4-c]pyridin-4(5H)-one]",> 10000,84,melting point: 170.5 °C
"O=C1c2sc(COc3ccccc3)nc2CCN1CC1CCOCC1 [Compound 3, 6,7-dihydro-2-(phenoxymethyl)-5-[(tetrahydro-2H-pyran-4-yl)methyl]-thiazolo[5,4-c]pyridin-4(5H)-one]",2290,78,
"COCCN1CCc2nc(COc3ccccc3)sc2C1=O [Compound 4, 6,7-dihydro-5-(2-methoxyethyl)-2-(phenoxymethyl)-thiazolo[5,4-c]pyridin-4(5H)-one]",> 10000,69,
"Cc1ccc(N2CCc3nc(COc4ccccc4)sc3C2=O)nc1 [Compound 5, 6,7-dihydro-5-(5-methyl-2-pyridinyl)-2-(phenoxymethyl)-thiazolo[5,4-c]pyridin-4(5H)-one]",1200,84.5,
"O=C1c2sc(COc3ccc(F)cc3)nc2CCN1c1ccc(F)cc1 [Compound 6, 2-[(4-fluorophenoxy)methyl]-5-(4-fluorophenyl)-6,7-dihydro-thiazolo[5,4-c]pyridin-4(5H)-one]",457,75,melting point: > 280 °C
"O=C1c2sc(COc3ccccc3)nc2CCCN1c1ccc(F)cc1 [Compound 11, 5-(4-fluorophenyl)-5,6,7,8-tetrahydro-2-(phenoxymethyl)-4H-thiazolo[5,4-c]azepin-4-one]",214,81,melting point: 120.4 °C
"O=C1c2sc(OCc3ccccc3)nc2CCN1Cc1ccc(F)cc1F [Compound 13, 5-[(2,4-difluorophenyl)methyl]-6,7-dihydro-2-(phenylmethoxy)-thiazolo[5,4-c]pyridin-4(5H)-one]",1860,48,melting point: 108 to 111.2 °C
"O=C1c2sc(OCc3cccc(F)c3)nc2CCN1c1ccc(F)cc1 [Compound 19, 5-(4-fluorophenyl)-2-[(3-fluorophenyl)methoxy]-6,7-dihydro-thiazolo[5,4-c]pyridin-4(5H)-one]",214,38,melting point: 127.4 to 128.9 °C
"CN1CCc2nc(OCc3ccccc3)sc2C1=O [Compound 24, 6,7-dihydro-5-methyl-2-(phenylmethoxy)-thiazolo[5,4-c]pyridin-4(5H)-one]",3470,45,
"C[C@@H](N1CCc2nc(COc3ccc(F)cc3)sc2C1=O)C(C)(C)C [Compound 34, 2-[(4-fluorophenoxy)methyl]-6,7-dihydro-5-[(1R)-1,2,2-trimethylpropyl]-thiazolo[5,4-c]pyridin-4(5H)-one]",1480,48,
"COc1ccccc1N1CCc2nc(COc3ccccc3F)sc2C1=O [Compound 36, 2-[(2-fluorophenoxy)methyl]-6,7-dihydro-5-(2-methoxyphenyl)-thiazolo[5,4-c]pyridin-4(5H)-one]",2000,71,
"O=C1c2sc(COc3ccccc3)nc2CCN1c1ccccn1 [Compound 45, 6,7-dihydro-2-(phenoxymethyl)-5-(2-pyridinyl)-thiazolo[5,4-c]pyridin-4(5H)-one]",832,85,
"O=C1c2sc(COc3ccccc3)nc2CCN1c1ccc(F)cn1 [Compound 47, 5-(5-fluoro-2-pyridinyl)-6,7-dihydro-2-(phenoxymethyl)-thiazolo[5,4-c]pyridin-4(5H)-one]",251,82,
"O=C1c2sc(COc3ccccc3)nc2CCN1c1cccnc1 [Compound 48, 6,7-dihydro-2-(phenoxymethyl)-5-(3-pyridinyl)-thiazolo[5,4-c]pyridin-4(5H)-one]",4680,78,
"O=C1c2sc(COc3ccccc3)nc2CCN1c1ccncc1 [Compound 49, 6,7-dihydro-2-(phenoxymethyl)-5-(4-pyridinyl)-thiazolo[5,4-c]pyridin-4(5H)-one]",,,pEC50 (human mGluR5a receptor): 5.57
"O=C1c2sc(COc3ccccc3)nc2CCN1c1ncccc1F [Compound 50, 5-(3-fluoro-2-pyridinyl)-6,7-dihydro-2-(phenoxymethyl)-thiazolo[5,4-c]pyridin-4(5H)-one]",1380,69,
"Cc1ccnc(N2CCc3nc(COc4ccccc4)sc3C2=O)c1 [Compound 51, 6,7-dihydro-5-(4-methyl-2-pyridinyl)-2-(phenoxymethyl)-thiazolo[5,4-c]pyridin-4(5H)-one]",3630,75,
"Cc1cccnc1N1CCc2nc(COc3ccccc3)sc2C1=O [Compound 52, 6,7-dihydro-5-(3-methyl-2-pyridinyl)-2-(phenoxymethyl)-thiazolo[5,4-c]pyridin-4(5H)-one]",1350,82,
"O=C1NCCc2nc(OCc3ccccc3)sc21 [Compound 65, 6,7-dihydro-2-(phenylmethoxy)-thiazolo[5,4-c]pyridin-4(5H)-one]",,,EC50 (human mGluR5 receptor; [1]): > 30200 nM; Emax (human mGluR5 receptor): 25%
"N#Cc1cc(COc2nc3c(s2)C(=O)NCC3)ccc1F [Compound 66, 2-fluoro-5-[[(4,5,6,7-tetrahydro-4-oxothiazolo[5,4-c]pyridin-2-yl)oxy]methyl]-benzonitrile]",,,EC50 (human mGluR5 receptor; [1]): > 30200 nM; Emax (human mGluR5 receptor): 24%
"O=C1NCCc2nc(OCc3ccccc3F)sc21 [Compound 69, 2-[(2-fluorophenyl)methoxy]-6,7-dihydro-thiazolo[5,4-c]pyridin-4(5H)-one trifluoroacetate]",,,EC50 (human mGluR5 receptor; [1]): > 30200 nM; Emax (human mGluR5 receptor): 15%
"O=C1NCCc2nc(OCc3cccc(F)c3)sc21 [Compound 70, 2-[(3-fluorophenyl)methoxy]-6,7-dihydro-thiazolo[5,4-c]pyridin-4(5H)-one trifluoroacetate]",,,EC50 (human mGluR5 receptor; [1]): > 30200 nM; Emax (human mGluR5 receptor): 15%
"O=C1NCCc2nc(OCc3ccc(F)cc3)sc21 [Compound 71, 2-[(4-fluorophenyl)methoxy]-6,7-dihydro-thiazolo[5,4-c]pyridin-4(5H)-one trifluoroacetate]",,,EC50 (human mGluR5 receptor; [1]): > 30200 nM; Emax (human mGluR5 receptor): 8%
"Cc1ccc(COc2nc3c(s2)C(=O)NCC3)cc1 [Compound 72, 6,7-dihydro-2-[(4-methylphenyl)methoxy]-thiazolo[5,4-c]pyridin-4(5H)-one]",,,EC50 (human mGluR5 receptor; [1]): > 30200 nM; Emax (human mGluR5 receptor): 10%
"COc1cccc(COc2nc3c(s2)C(=O)N(c2ccc(F)cc2F)CC3)c1 [Compound 80, 5-(2,4-difluorophenyl)-6,7-dihydro-2-[(3-methoxyphenyl)methoxy]-thiazolo[5,4-c]pyridin-4(5H)-one]",,,EC50 (human mGluR5 receptor; [1]): > 30200 nM; Emax (human mGluR5 receptor): 26%
